Assay results as given in patent US4822805A, “Pyridyl-imidazole compounds which have useful pharmaceutical activity” (Fujisawa Pharmaceutical Co., Ltd., priority 1986, dated 1989).
Values after ≈ are worked out from the molar mass of the structure shown. Values belong to the compound of their own block, whether it stands above or below them.

How the values were obtained:
[1] = test system: Platelet aggregation (collagen); assay: Anti-platelet activity, Test 3: collagen-induced platelet aggregation in blood after oral administration; type: in vivo, Male Sprague-Dawley rats; conditions: 32 mg/kg oral, blood collected one hour after; collagen 5.0 μg/ml
Protocol: Male Sprague-Dawley rats weighing about 250 g were used after overnight fasting. One hour after oral administration of test compound or vehicle of test compound (control), blood was collected into a tube containing 0.1 vol. of 3.8% sodium citrate. To the 0.45 ml of blood, 0.05 ml of collagen (final concentration 5.0 μg/ml) was added and then incubated for 5 min. at 37° C. under shaking. The reaction was terminated by addition of 1 ml of 10 mM phosphate buffered saline (pH 7.4) containing 11.5 mM EDTA and 1% formalin. The reaction mixture was centrifuged at 70 xg for 5 min. and platelet count of upper phase was measured by Technicon Auto Analizer.
Platelet aggregation was calculated according to the following formula: [formula] A: Platelet count after addition of vehicle of collagen B: Platelet count after addition of collagen.
Inhibition of the test compound was calculated according to the following formula. [formula] C: Platelet aggregation (%) of control D: Platelet aggregation (%) of Test compound.

[2] = test system: Platelet aggregation (9,11-azo PGH2); assay: Anti-platelet activity, Test 4: 9,11-azo PGH2-induced platelet aggregation in platelet rich plasma; type: cell-based, rabbits; conditions: Oryctolagus cuniculus, rabbit PRP, 9,11-azo PGH2 1.0 μM, 37° C.
Protocol: The blood was collected from the carotid artery of rabbits into plastic vessels containing 0.1 volume of 3.8% sodium citrate. Platelet rich plasma (PRP) was prepared by centrifugation at 150 g for 15 minutes. Platelet aggregation was investigated by using the turbidimetric method with an aggregometer (NKK HEMATRACER 1). To the 225 μl of PRP, 25 μl of test compound solution was added, and then stirred at 1000 rpm for 2 minutes at 37° C. To the solution 5 μl of 9,11-azo PGH2 (final 1.0 μM) was added as an aggregating inducer.

[3] = test system: left ventricular pressure (dp/dt max); assay: Cardiotonic activity, Test 1: dp/dt max change in anesthetized dogs; type: in vivo, Mongrel dogs; conditions: 1.0 mg/kg, injected into the femoral vein
Protocol: Mongrel dogs of either sex were anesthetized with sodium pentobarbital, 35 mg/kg, i.p.. The animals were allowed to breathe spontaneously. The left carotid artery was isolated and a catheter (USCI, #8F) filled with heparinized saline was inserted and advanced into the left ventricle. The catheter was connected to a pressure transducer (Nihonkohden, MPU-0.5A) to measure the left ventricular pressure, from which dp/dt max was derived by analog computing. The measure the systemic blood pressure the left femoral artery was cannulated. The blood pressure pulse was used to trigger a heart rate meter. Another catheter was positioned in the vena cave through right femoral vein for injection of drugs. Systemic blood pressure, left ventricular pressure, dp/dt max and heart rate was recorded simultaneously on a polygram (Nihonkohden, RJG-4008).
Test compound was dissolved in distilled water (0.2 ml/kg) or dimethyl sulfoxide (0.04 ml/kg) and injected into the femoral vein. The parameters after dosing were compared with those during the predosing period.
Test results were represented in terms of percentage of dp/dt max changes (dp/dt M.C.) calculated by following formula. [formula]

atrial strip = assay: Cardiotonic activity, Test 2: contractile force and heart rate of isolated atrial strip; design: species or system Male Hartley strain guinea-pigs; conditions: Cavia porcellus, 0.5 h; 1 × 10^-5 g/ml; 30° C.; observed for 30 min; percentage before and after dosing
Protocol: Male Hartley strain guinea-pigs, weighing 530-600 g, were killed by bleeding and the heart was removed. An atrial strip was removed and suspended in an organ bath containing 50 ml of Tyrode's solution maintained at 30° C. and aerated with a gas mixture of 95% O2 -5% CO2. The atrium was connected to a strain gauge under an initial tension of 0.4-0.6 g. […] The effect was expressed as percentage values before and after dosing.

carrageenin foot edema = assay: Anti-inflammatory activity, Test 5: carrageenin foot edema; type: in vivo, Male Sprague-Dawley rats; conditions: 32 mg/kg oral, 60 minutes before phlogogen; edema volume 3 hours after phlogogen; 1% carrageenin
Protocol: Male Sprague-Dawley rats weighing about 180 g were used in groups of five. Paw edema was induced by subplantar injection of 1% carrageenin (0.1 ml/rat) into the right hind paw in carrageenin foot edema. The test compound was suspended in methylcellulose and administered orally 60 minutes before halogogen. Paw volume was measured with plethysmometer (Ugo Basil Co., Ltd.) by water displacement immersing the paw to the lateral malleolus. The difference of paw volume before and 3 hours after the phlogogen was designated as edema volume.
The data was analyzed statistically by student's t-test.

- IC50 [2]: 0.11 µg/mL (≈ 0.434 µM)
Structure (SMILES): Cc1nc(-c2ccccc2F)[nH]c1-c1cccnc1 [Compound i, 2-(2-Fluorophenyl)-4-methyl-5-(3-pyridyl)imidazole]
- Inhibition (platelet aggregation) [1]: 100%

Structure (SMILES): COc1cc(SC)ccc1-c1nc(-c2cccnc2)c(C)[nH]1 [Compound c, 2-(2-Methoxy-4-methylthiophenyl)-5-methyl-4-(3-pyridyl)imidazole]
- dp/dt M.C. (percentage of dp/dt max changes) [3]: 167%

- IC50 [2]: 0.39 µg/mL (≈ 1.33 µM)
Structure (SMILES): CC(=O)Nc1ccccc1-c1nc(C)c(-c2cccnc2)[nH]1 [Compound j, 2-(2-Acetamidophenyl)-4-methyl-5-(3-pyridyl)imidazole]
- Inhibition (platelet aggregation) [1]: 91.3%

Structure (SMILES): COc1ccc(-c2nc(-c3ccncc3)c(C)[nH]2)c(OC)c1 [Compound e, 2-(2,4-Dimethoxyphenyl)-5-methyl-4-(4-pyridyl)imidazole]
- activation at 10 µg/mL (atrial strip): 58%
- inhibition at 10 µg/mL (atrial strip): 26.8%

Structure (SMILES): CCc1[nH]c(-c2ccc(OC)cc2OC)nc1-c1ccncc1 [Compound f, 2-(2,4-Dimethoxyphenyl)-5-ethyl-4-(4-pyridyl)imidazole]
- activation at 10 µg/mL (atrial strip): 61.1%
- inhibition at 10 µg/mL (atrial strip): 30.7%

- IC50 [2]: 0.16 µg/mL (≈ 0.534 µM)
Structure (SMILES): COc1cc(Cl)ccc1-c1nc(-c2cccnc2)c(C)[nH]1 [Compound k, 2-(4-Chloro-2-methoxyphenyl)-5-methyl-4-(3-pyridyl)imidazole]
- Inhibition (paw edema) (carrageenin foot edema): 72.3%

Structure (SMILES): COc1ccccc1-c1nc(-c2cccnc2)c(C)[nH]1 [Compound h, 2-(2-Methoxyphenyl)-5-methyl-4-(3-pyridyl)imidazole]
- Inhibition (paw edema) (carrageenin foot edema): 62.7%

Structure (SMILES): CCc1[nH]c(-c2ccc(OC)c(OC)c2)nc1-c1ccccn1 [Compound d, 2-(3,4-Dimethoxyphenyl)-5-ethyl-4-(2-pyridyl)imidazole]
- activation at 10 µg/mL (atrial strip): 51.6%
- inhibition at 10 µg/mL (atrial strip): 14.1%

Structure (SMILES): COc1cc(NC(C)=O)c(Cl)cc1-c1nc(-c2cccnc2)c(C)[nH]1 [Compound g, 2-(4-Acetamido-5-chloro-2-methoxyphenyl)-5-methyl-4-(3-pyridyl)imidazole]
- Inhibition (platelet aggregation) [1]: 87.6%

Structure (SMILES): CCc1nc(-c2ccc(OC)cc2OC)[nH]c1-c1cccnc1 [Compound b, 2-(2,4-Dimethoxyphenyl)-4-ethyl-5-(3-pyridyl)imidazole]
- dp/dt M.C. (percentage of dp/dt max changes) [3]: 133%

Structure (SMILES): COc1ccc(-c2nc(-c3cccnc3)c(C)[nH]2)c(OC)c1 [Compound a, 2-(2,4-Dimethoxyphenyl)-5-methyl-4-(3-pyridyl)imidazole]
- dp/dt M.C. (percentage of dp/dt max changes) [3]: 82%
- activation at 10 µg/mL (atrial strip): 45%
- inhibition at 10 µg/mL (atrial strip): 21.2%
